Assays:
[1] = target: PRMT1 (Homo sapiens, UniProt Q99873); assay: PRMT1 enzyme activity test; assay type: biochemical; settings: 0.5 nM PRMT1, 3H-SAM, peptide
Summary of the method: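 Radiometric methylation assay: 0.5 nM PRMT1 preincubated 15 min at room temperature with compound (10-point 3-fold series, 1% DMSO) in pH 8.0 Tris buffer with Tween-20 and DTT. 0.25 uM ³H-SAM and 0.1 uM biotinylated peptide then reacted 120 min. Product captured on streptavidin FlashPlate and counted; IC50 from four-parameter fit of % inhibition.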

[2] = system: Toledo cells; assay: Toledo cell proliferation inhibition assay; assay type: cell-based; settings: Homo sapiens, Toledo, 144 h; six-day assay, CellTiter-Glo
Summary of the method: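 Toledo cells seeded at 2000 cells/well in RPMI 1640 + 10% FBS and incubated with compound for six days at 37° C, 5% CO2. Viability was then read by CellTiter-Glo luminescence after 30 min orbital mixing.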

PRMT1, sequence (Q99873 whole entry): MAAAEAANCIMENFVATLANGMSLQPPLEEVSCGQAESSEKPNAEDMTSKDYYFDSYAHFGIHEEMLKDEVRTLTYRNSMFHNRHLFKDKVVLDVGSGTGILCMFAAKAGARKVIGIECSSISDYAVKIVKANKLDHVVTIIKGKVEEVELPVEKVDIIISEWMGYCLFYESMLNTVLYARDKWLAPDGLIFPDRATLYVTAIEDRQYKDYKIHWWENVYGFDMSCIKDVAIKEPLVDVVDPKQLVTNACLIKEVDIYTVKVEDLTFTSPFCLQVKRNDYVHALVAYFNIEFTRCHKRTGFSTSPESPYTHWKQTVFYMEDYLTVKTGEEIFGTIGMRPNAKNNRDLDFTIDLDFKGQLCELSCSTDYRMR

Structure (SMILES)	IC50 [1] [nM]	IC50 [2] [nM]
CNCCN(C)Cc1ccc(C)nc1C1CCN(c2cccc(Cl)c2)CC1 [P073]	< 50	< 1000
CNCCN(C)Cc1ncccc1C1CCN(c2nccc(C)n2)CC1 [P278]	< 50	1000 to 5000
CNCCN(C)Cc1ccc(F)cc1C1CCN(CCc2ccccc2)CC1 [P012]	< 50	< 1000
CNCCN(C)Cc1ncccc1C1CCN(c2cccc(C(=O)O)c2)CC1 [P285]	≥ 500	≥ 5000
CNCCN(C)Cc1cc(C(=O)NC)ccc1C1CCN(c2cccc(C)c2)CC1 [P159]	≥ 500	≥ 5000
CNCCN(C)Cc1ncccc1C1CCN(Cc2cccc(C)c2)CC1 [P077]	< 50	1000 to 5000
CNCCN(C)Cc1ncccc1N1CCc2nc(C)nc(C)c2CC1 [P280]	< 50	≥ 5000
CNCCN(C)Cc1ncccc1N1CCc2ccc(NC(C)=O)cc2CC1 [P270]	< 50	1000 to 5000
CNCCN(C)Cc1ncccc1C1CCN(c2nc(C)nc3ccccc23)CC1 [P239]	< 50	1000 to 5000
CNCCN(C)Cc1ncccc1N1CCC(Oc2ccccn2)CC1 [P268]	< 50	1000 to 5000
CCC1(C(=O)O)CCN(c2cccnc2CN(C)CCNC)CC1 [P315]	≥ 500	≥ 5000
CCOC[C@H]1CC[C@H](c2cccnc2CN(C)CCNC)CC1 [P173]	< 50	< 1000
CNCCN(C)Cc1nc(C)ccc1N1CCc2cc(F)c(F)cc2CC1 [P093]	< 50	< 1000
CCOCC1(COCC)CCC(c2c(CN(C)CCNC)ccc3[nH]ncc23)CC1 [P266, N1-((4-(4,4-bis(ethoxymethyl)cyclohexyl)-1H-indazol-5-yl)methyl)-N1,N2-dimethylethane-1,2-diamine]	< 50	< 1000
CNCCN(C)Cc1ncccc1N1CCCC(OC)CC1 (stereo not drawn) [P233]	< 50	≥ 5000
CNCCN(C)Cc1ccc(CC(=O)NC)cc1C1CCN(c2cccc(C)c2)CC1 [P140]	< 50	< 1000
CNCCN(C)Cc1ncccc1C1CCN(C(=O)c2ccccc2)CC1 [P203]	50 to 500	≥ 5000
CNCCN(C)Cc1ccc(Cl)nc1C1CCN(c2cccc(C)c2)CC1 [P072]	< 50	< 1000
CNCCN(C)Cc1ncccc1C1CCN(c2cc(C)nc(N)n2)CC1 [P321]	< 50	1000 to 5000
CNCCN(C)Cc1ccc(-c2cn[nH]c2)cc1C1CCc2cc(F)c(F)cc2CC1 [P135]	< 50	< 1000
CNCCN(C)Cc1ccc(C)nc1C1CCc2cc(F)c(F)cc2CC1 [P038]	< 50	< 1000
CNCCN(C)Cc1ncccc1N1CC2CC(C1)c1ccccc12 [P119]	≥ 500	1000 to 5000

Structure (SMILES)	IC50 [1] [nM]	IC50 [2] [nM]
CNCCN(C)Cc1ncccc1C1CCN(c2cccc(OC)c2)CC1 [P169]	< 50	< 1000
CNCCN(C)Cc1ncccc1C1CCN(c2cccc(CN3CCCC3)c2)CC1 [P071]	< 50	1000 to 5000
CCOCC1(COCC)CC=C(c2ccccc2CN(C)CCNC)CC1 [P117]	< 50	< 1000
CNCCN(C)Cc1ncccc1N1CCC(Oc2cnc(C)nc2)CC1 [P313]	< 50	1000 to 5000
CNCCN(C)Cc1ncccc1C1CCN(c2cnccn2)CC1 [P288]	< 50	1000 to 5000
CNCCN(C)Cc1ccc(F)cc1C1CCc2ccccc2CC1 [P011]	< 50	< 1000
CNCCN(C)Cc1ccccc1C1=CCC(OC(C)C)CC1 (stereo not drawn) [P060]	< 50	< 1000
CNCCN(C)Cc1ncccc1C1CCN(c2nc(C)cc(N3CCCC3)n2)CC1 [P242]	< 50	< 1000
CNCCN(C)Cc1ccc(C)nc1C1CCN(c2ccc(F)c(C)c2)CC1 [P065]	< 50	< 1000
CNCCN(C)Cc1ncccc1C1CCN(c2ccccc2C#N)CC1 [P201]	< 50	< 1000
CNCCN(C)Cc1ncccc1N1CCc2nc(SC)nc(O)c2CC1 [P329]	50 to 500	≥ 5000
CNCCN(C)Cc1ncccc1C1CCCCC1 [P125]	< 50	< 1000
CCC1CCN(c2ccccc2CN(C)CCNC)CC1 [P031]	< 50	1000 to 5000
CNCCN(C)Cc1ncccc1N1CCC(Oc2ccnc(C)n2)CC1 [P314]	< 50	≥ 5000
CNCCN(C)Cc1ccc(F)cc1C1CCN(c2cccc(C(C)(C)O)c2)CC1 [P076]	< 50	1000 to 5000
CNCCN(C)Cc1nc(C)ccc1N1CCc2ccccc2CC1 [P109]	< 50	< 1000
CCOCC1(CC)CCN(c2cccnc2CN(C)CCNC)CC1 [P182]	< 50	< 1000
CCOCC1(COCC)CCN(c2c(Br)cccc2CN(C)CCNC)CC1 [P123]	< 50	1000 to 5000
CNCCN(C)Cc1ccc(C)nc1N1CCN(c2cccc(C)c2)CC1 [P116]	< 50	1000 to 5000
CNCCN(C)Cc1ccc(N(C)C)nc1C1CCN(c2cccc(C)c2)CC1 [P098]	< 50	< 1000
CNCCN(C)Cc1ncccc1N1CCC(Oc2ccc(-n3ccnc3)cc2)CC1 [P259]	< 50	1000 to 5000
CNCCN(C)Cc1ncccc1N1CCCCCC1 [P145]	< 50	1000 to 5000

Structure (SMILES)	IC50 [1] [nM]	IC50 [2] [nM]
CNCCN(C)Cc1nc(C)ccc1C1CCc2cc(F)c(F)cc2CC1 [P036]	< 50	< 1000
CNCCN(C)Cc1ncccc1C1CCN(c2ccc(-c3ccncc3)cc2)CC1 [P133]	< 50	< 1000
CNCCN(C)Cc1cc(F)ccc1[C@H]1CC[C@@H](c2cccc(C)c2)CC1 [P006]	< 50	1000 to 5000
CNCCN(C)Cc1ncccc1C1CCN(c2cccc(C(=O)NC)c2)CC1 [P254]	50 to 500	≥ 5000
CNCCN(C)Cc1ncccc1N1CCc2nc(OC)cc(OC)c2CC1 [P304]	< 50	1000 to 5000
CNCCN(C)Cc1ncccc1N1CCCC1 [P197]	≥ 500	≥ 5000
CNCCN(C)Cc1ncccc1N1CCC(Oc2cccnc2)CC1 [P269]	< 50	1000 to 5000
CNCCN(C)Cc1ccccc1C1=CCN(C(C)C)CC1 [P028]	< 50	≥ 5000
CNCCN(C)Cc1ccc(C(C)N)cc1C1CCN(c2cccc(C)c2)CC1 (stereo not drawn) [P105]	< 50	< 1000
CNCCN(C)Cc1ccc(C)nc1C1CCN(c2cccc(C(F)F)c2)CC1 [P061]	< 50	< 1000
CNCCN(C)Cc1ncccc1N1CCCOCC1 [P260]	< 50	1000 to 5000
CNCCN(C)Cc1ncccc1C1CCN(c2ccc(OC)cc2)CC1 [P168]	< 50	1000 to 5000
CNCCN(C)Cc1ncccc1N1CCC(COc2ccnc(C)n2)CC1 [P306]	50 to 500	1000 to 5000
CNCCN(C)Cc1ncccc1N1CCc2cnc(N(C)C)nc2CC1 [P286]	< 50	1000 to 5000
CNCCN(C)Cc1ccc(F)cc1C1CCN(c2nc(C)cc(N3CCCC3)n2)CC1 [P151]	< 50	1000 to 5000
CNCCN(C)Cc1ncccc1C1CCN(c2ccc(C(=O)NC)cc2)CC1 [P255]	< 50	1000 to 5000
CNCCN(C)Cc1ccc(C)nc1C1CCN(c2cc(C)cc(Cl)c2)CC1 [P058]	< 50	< 1000
CNCCN(C)Cc1ncccc1N1CCC(Oc2cc(C)ccc2Cl)CC1 [P144]	< 50	< 1000
CNCCN(C)Cc1ncccc1N1CCC(OC(C)C)CC1 [P224]	< 50	1000 to 5000
CNCCN(C)Cc1ccc(C)nc1C1CCN(c2cccc(N(C)C)c2)CC1 [P099]	< 50	1000 to 5000
CNCCN(C)Cc1ncccc1C1CCN(c2cnc(C#N)nc2)CC1 [P318]	< 50	≥ 5000
CNCCN(C)Cc1ncccc1C1CCN(c2cccc3c2OCC3)CC1 [P164]	< 50	1000 to 5000
